Tests used:
[1] = molecular target: Glutamate receptor ionotropic, NMDA 1/2C (Homo sapiens, UniProt Q05586+Q14957); assay: Inhibition of recombinant GluN1/GluN2C receptor (unknown origin) expressed in HEK293 cells assessed as inhibition of glutamate-evoked current by whole-cell voltage-clamp method
[2] = molecular target: Glutamate receptor ionotropic, NMDA 1/2B (Homo sapiens, UniProt Q05586+Q13224); assay: Inhibition of recombinant GluN1/GluN2B receptor (unknown origin) expressed in HEK293 cells assessed as inhibition of glutamate-evoked current by whole-cell voltage-clamp method
[3] = molecular target: Glutamate receptor ionotropic, NMDA 1/2D (Homo sapiens, UniProt Q05586+O15399); assay: Inhibition of recombinant GluN1/GluN2D receptor (unknown origin) expressed in HEK293 cells assessed as inhibition of glutamate-evoked current by whole-cell voltage-clamp method
[4] = molecular target: Glutamate receptor ionotropic, NMDA 1/2A (Homo sapiens, UniProt Q12879+Q05586); assay: Inhibition of recombinant GluN1/GluN2A receptor (unknown origin) expressed in HEK293 cells assessed as inhibition of glutamate-evoked current by whole-cell voltage-clamp method
Sequence of Glutamate receptor ionotropic, NMDA 1/2A (Q12879 whole entry, other chains not shown): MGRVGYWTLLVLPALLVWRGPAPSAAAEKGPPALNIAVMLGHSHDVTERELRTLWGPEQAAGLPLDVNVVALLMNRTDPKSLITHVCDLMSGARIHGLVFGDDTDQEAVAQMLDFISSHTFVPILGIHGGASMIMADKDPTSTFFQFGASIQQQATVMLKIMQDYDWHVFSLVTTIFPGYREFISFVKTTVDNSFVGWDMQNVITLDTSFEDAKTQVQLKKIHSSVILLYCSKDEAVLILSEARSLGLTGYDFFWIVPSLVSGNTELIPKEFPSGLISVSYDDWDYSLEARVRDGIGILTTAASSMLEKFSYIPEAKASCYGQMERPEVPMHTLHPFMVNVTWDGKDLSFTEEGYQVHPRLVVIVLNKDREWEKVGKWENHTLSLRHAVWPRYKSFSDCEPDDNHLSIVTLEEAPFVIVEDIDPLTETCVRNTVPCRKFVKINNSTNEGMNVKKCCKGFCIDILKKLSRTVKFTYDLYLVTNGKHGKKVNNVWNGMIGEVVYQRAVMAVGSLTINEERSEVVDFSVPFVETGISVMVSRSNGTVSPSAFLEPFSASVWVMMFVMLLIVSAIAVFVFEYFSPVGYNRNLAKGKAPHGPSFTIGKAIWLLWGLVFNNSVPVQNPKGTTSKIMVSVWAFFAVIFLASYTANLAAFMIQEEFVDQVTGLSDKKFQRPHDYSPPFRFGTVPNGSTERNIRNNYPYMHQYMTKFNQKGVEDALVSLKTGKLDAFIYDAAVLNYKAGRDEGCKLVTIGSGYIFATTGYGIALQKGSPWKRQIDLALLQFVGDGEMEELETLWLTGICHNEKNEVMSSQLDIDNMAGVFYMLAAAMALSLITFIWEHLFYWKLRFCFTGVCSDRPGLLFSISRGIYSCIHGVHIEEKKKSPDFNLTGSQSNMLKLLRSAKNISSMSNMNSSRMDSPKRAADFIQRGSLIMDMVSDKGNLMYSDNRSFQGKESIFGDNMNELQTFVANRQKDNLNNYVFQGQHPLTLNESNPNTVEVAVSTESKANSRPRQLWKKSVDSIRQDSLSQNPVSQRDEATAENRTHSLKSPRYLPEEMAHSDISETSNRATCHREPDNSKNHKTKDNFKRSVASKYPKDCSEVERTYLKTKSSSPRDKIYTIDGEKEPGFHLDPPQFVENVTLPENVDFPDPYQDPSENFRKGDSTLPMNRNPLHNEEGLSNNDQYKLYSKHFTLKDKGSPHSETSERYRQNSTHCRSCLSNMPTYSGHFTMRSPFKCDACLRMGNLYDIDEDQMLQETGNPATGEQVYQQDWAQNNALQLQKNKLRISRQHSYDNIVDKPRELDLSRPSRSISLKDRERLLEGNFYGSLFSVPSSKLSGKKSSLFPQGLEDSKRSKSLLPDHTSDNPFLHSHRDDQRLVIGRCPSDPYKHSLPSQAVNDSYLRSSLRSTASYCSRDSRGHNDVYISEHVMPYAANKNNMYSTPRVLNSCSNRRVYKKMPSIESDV

Sequence of Glutamate receptor ionotropic, NMDA 1/2D (O15399 whole entry, other chains not shown): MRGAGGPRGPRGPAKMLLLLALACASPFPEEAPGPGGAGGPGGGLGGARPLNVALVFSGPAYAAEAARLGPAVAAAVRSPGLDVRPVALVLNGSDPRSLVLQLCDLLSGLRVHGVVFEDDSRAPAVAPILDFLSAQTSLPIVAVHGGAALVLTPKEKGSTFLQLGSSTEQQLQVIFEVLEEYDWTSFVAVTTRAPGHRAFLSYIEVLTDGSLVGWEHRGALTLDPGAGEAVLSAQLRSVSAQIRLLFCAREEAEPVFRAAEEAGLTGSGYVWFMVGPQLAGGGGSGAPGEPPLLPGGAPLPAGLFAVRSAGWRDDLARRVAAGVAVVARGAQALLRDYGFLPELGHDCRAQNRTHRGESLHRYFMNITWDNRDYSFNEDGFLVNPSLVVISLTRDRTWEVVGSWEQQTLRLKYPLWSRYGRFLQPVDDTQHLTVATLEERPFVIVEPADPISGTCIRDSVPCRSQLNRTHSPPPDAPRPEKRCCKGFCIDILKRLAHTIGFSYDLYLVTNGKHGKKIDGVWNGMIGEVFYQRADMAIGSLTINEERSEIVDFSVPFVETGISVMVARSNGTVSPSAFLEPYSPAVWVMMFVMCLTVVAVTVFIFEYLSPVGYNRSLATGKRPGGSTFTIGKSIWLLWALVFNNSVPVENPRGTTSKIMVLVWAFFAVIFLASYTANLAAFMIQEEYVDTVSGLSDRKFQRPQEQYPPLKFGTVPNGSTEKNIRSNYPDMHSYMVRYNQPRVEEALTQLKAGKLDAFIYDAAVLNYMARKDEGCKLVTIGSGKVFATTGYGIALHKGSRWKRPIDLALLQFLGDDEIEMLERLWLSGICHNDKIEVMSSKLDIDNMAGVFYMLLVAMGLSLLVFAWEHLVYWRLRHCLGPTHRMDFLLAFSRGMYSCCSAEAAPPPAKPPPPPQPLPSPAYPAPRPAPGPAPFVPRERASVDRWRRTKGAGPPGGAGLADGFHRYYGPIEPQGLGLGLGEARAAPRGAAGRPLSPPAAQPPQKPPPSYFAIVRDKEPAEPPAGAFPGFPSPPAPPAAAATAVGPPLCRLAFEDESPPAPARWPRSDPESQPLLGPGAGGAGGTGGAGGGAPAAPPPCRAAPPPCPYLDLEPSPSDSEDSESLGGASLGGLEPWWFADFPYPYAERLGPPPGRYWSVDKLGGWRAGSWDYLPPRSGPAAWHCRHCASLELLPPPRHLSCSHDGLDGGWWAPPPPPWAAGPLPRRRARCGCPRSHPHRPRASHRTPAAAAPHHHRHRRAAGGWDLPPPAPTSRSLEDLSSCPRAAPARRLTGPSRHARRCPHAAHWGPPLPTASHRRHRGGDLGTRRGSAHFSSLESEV
Sequence of Glutamate receptor ionotropic, NMDA 1/2B (Q13224 whole entry, other chains not shown): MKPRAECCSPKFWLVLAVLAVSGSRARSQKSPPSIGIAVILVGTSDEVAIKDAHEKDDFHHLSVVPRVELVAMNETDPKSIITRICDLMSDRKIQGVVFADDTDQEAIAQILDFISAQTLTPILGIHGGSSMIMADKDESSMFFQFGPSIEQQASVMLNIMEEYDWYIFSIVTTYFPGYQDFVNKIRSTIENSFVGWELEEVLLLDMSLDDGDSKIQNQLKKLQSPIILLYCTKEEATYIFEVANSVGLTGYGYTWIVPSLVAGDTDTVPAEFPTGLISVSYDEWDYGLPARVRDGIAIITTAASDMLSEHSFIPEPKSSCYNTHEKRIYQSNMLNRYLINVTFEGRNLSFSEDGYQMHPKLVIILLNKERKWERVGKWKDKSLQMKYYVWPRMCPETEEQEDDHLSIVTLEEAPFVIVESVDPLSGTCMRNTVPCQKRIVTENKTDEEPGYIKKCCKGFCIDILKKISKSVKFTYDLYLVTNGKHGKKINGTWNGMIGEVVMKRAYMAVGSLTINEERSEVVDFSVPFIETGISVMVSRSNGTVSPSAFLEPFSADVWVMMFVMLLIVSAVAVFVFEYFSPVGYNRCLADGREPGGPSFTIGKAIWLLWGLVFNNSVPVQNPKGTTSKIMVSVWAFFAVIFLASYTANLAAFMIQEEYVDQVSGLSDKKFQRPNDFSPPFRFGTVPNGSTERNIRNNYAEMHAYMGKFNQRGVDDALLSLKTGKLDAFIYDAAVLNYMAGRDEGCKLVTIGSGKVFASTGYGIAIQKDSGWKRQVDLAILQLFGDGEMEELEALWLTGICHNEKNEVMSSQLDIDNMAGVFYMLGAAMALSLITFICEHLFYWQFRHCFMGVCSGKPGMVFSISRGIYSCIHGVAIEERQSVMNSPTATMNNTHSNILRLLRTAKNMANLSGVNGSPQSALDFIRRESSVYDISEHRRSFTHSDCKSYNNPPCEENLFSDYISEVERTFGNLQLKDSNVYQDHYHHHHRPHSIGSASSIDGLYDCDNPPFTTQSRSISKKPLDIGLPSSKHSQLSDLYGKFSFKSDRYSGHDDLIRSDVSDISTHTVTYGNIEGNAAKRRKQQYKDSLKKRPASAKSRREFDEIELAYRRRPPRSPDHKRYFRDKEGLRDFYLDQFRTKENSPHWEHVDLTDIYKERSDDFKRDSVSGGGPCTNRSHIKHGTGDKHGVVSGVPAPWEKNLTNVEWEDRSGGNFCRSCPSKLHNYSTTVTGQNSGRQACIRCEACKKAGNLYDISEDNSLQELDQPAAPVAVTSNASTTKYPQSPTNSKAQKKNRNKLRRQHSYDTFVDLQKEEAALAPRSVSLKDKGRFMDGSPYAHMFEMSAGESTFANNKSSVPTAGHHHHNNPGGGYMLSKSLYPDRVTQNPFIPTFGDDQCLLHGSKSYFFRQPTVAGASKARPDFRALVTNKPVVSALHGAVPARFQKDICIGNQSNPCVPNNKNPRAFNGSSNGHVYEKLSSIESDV

- IC50 [1]: 400 nM
- IC50 [2]: 600 nM
- IC50 [3]: 500 nM
- IC50 [4]: 600 nM
SMILES: C[C@H]1CC[C@H]2[C@@H]3CC[C@@H]4C[C@H](OS(=O)(=O)O)CC[C@]4(C)[C@H]3CC[C@]12C
